For one data set, the system named is SP49-IR cells. Briefly: Ibrutinib sensitivity of ibrutinib-resistant SP49-IR cells. Format: cell-based. From the text: (§1) Animals, cell lines, and primary human tumor samples. BALB/c mice for antibody development and NOD scid gamma (NSG) breeding pairs were purchased from The Jackson Laboratory (Bar Harbor, ME). The NSG breeding colony was maintained by the Animal Resource Center at City of Hope. Mice were housed in a pathogen-free animal facility according to institutional guidelines. All animal studies were approved by the Institutional Animal Care and Use Committee (IACUC: 15020). JeKo-1, SU-DHL-6, Raji, U266 and RL were purchased from ATCC (Manassas, VA). Z-138 line was provided by Dr. Michael Wang (MD Anderson Cancer Center). Ibrutinib-resistant SP49-IR line was developed and provided by Dr. Jianguo Tao (University of South Florida). Ibrutinib-resistant SP49 cell lines (SP49-IR) were established by treating cells with escalating doses of ibrutinib. IC50 was 5 nM for parental SP49 compared to >100 nM for SP49-IR. At 100 nM ibrutinib ˜5% of SP49 cells were viable compared with >90% of SP49-IR cells. Human NK-92 176V cells were obtained from Conkwest Inc. (San Diego, CA). For human blood and tumor samples, non-cultured, primary human lymphomas were obtained as cryopreserved, viable single cell suspensions in 10% DMSO from the Lymphoma Satellite Tissue Bank at MD Anderson Cancer Center under an Institutional Review Board approved protocol (IRB: 2005-0656). […]

The test system of the next data set is SP49 cells. The experiment in a line: Ibrutinib sensitivity of parental SP49 cells. In kind it is cell-based.
Excerpt: as §1

Data set [1] relates to JeKo-1, Z138, and RS4 lines. Briefly: ADCC chromium release of humanized C90-4 and C90-5, dose response. Format: cell-based. The note with it: RS4 acute lymphoblastic lymphoma. How it is done:
FIGS. 21A and 21B are graphs showing humanized antibodies C90-4 and C90-5 analyzed for their specific cytotoxicity of various lymphoma lines. For FIG. 21A, JeKo-1, Z138, and RS4 were subjected to a chromium release assay with humanized antibodies C90-4 and C90-5. Antibodies were administered to the cell lines at concentrations between 0 to 5 μg/mL and incubated for 6 hours with NK cells at an E:T ratio of 20:1. The cell supernatants were analyzed for their chromium content. For FIG. 21B, LY-10, MEC-2, RL, and Raji lymphoma lines were subjected to a chromium release assay with humanized antibodies C90-4 and C90-5. Antibodies were administered to the cell lines at 5 μg/mL and incubated for 6 hours with NK cells at an E:T ratio of 20:1. The cell supernatants were analyzed for their chromium content.
The two variants were further assessed in their ability to initiate ADCC. The antibodies were administered in varying concentration to JeKo-1, Z138, and RS4 lines after a period of chromium uptake. The cells and antibodies were incubated with effector NK cells. The supernatant was analyzed 6 hours post treatment (FIG. 21A).

In data set [2] the test system is JeKo-1-CD20-KO tumor cells. Briefly: In vivo JeKo-1-CD20-KO xenograft. The arrangement: species or system NSG mice. Conditions: Day 20. An excerpt:
FIGS. 6A and 6B are images and FIG. 6C are graphs showing chimeric antibodies targeting human BAFF-R elicited in vivo therapeutic effects against drug resistant B-cell tumors. Bioluminescence images of mice challenged with luciferase-expressing tumors JeKo-1-CD20-KO cells (FIG. 6A) or ibrutinib-resistant Z-138 cells (FIG. 6B) followed by antibody treatments as in FIG. 4. Control group mice received PBS, NK cells alone, or rituximab on the same schedule. […] Tumor free rate and survival differences between experimental and all control groups were analyzed by log-rank test (**P<0.001). Data are representative of three independent experiments.
(§2) In vivo studies. For tumor models, stable, luciferase-expressing tumors lines were established for bioluminescent imaging in mouse models. Briefly, a luciferase gene was introduced into tumor lines by a lentivirus gene delivery system (pLenti7.3/V5-DEST Gateway Vector Kit, Life Technologies, Carlsbad, CA). The minimum lethal dose per mouse was determined for each tumor cell line by dose titration. Tumor cells were injected intravenously (IV) and mice were monitored by in vivo bioluminescence imaging for minimum tumor dose to ensure engraftment. Minimum lethal tumor doses were: 1×10^6 JeKo-1, 5×10^5 RS4; 11, 5×10^5 JeKo-1-CD20-KO, or 2.5×10^4 Z-138 cells. […]

The test system of another data set is JeKo-1-CD20-KO clone 25. The experiment in a line: ADCC on rituximab-resistant JeKo-1-CD20-KO. The note with it: E:T=20:1. Format: cell-based. How it is done:
FIGS. 5A, 5B and 5C are images or graphs showing chimeric BAFF-R antibodies induce ADCC on drug resistant lymphoma models in vitro. FIG. 5A is a scatterplot of FACS analysis showing CD20 binding on JeKo-1 cells following CRISPR/HDR knock-out of CD20 gene. CD20 expression on selected CD20−/−clone #25 compared to WT JeKo-1. ADCC effects measured by chromium-51 release after incubation with C55, C90, or rituximab and effectors NK cells (E:T=20:1). Percentage of cell specific lysis of target cells: rituximab-resistant JeKo-1-CD20-KO (FIG. 5B) and ibrutinib-resistant Z-138 and SP49-IR (FIG. 5C). All data are representative of two or more identical experiments. Data are shown as the mean±s.d. of triplicate samples. *P<0.05 compared with NK cells by two-tailed Student's t-test.
Cytotoxicity assays. Target cells (L cells, human tumor lines, primary patient samples) were labeled with chromium-51 (51Cr, Perkin Elmer, Waltham, MA) for a 51Cr release assay. Briefly, antibodies and effectors (NK cells or complement serum standard [Sigma Aldrich, St. Louis, MO]), were added to labeled target cells and incubated up to 18 hours. NK cells were enriched from PBMC (NK cell enrichment kit, Stemcell Technologies, Vancouver, Canada). 51Cr released into supernatant was detected with a Wizard Automatic Gamma Counter (Perkin Elmer).
Generation of JeKo-1-CD20-KO. […]

For data set [3], the system named is RS4; 11 (acute lymphoblastic leukemia, ALL). Briefly: In vivo RS4;11 ALL xenograft, bioluminescence imaging. The note with it: RS4;11 challenged NSG mice.
Excerpt: FIG. 4A is a schematic showing treatment schedule following Day 0 tumor challenge with minimum lethal dose of tumors. Treatments were given by IV tail vein injections. FIGS. 4B and 4C are images showing chimeric antibodies targeting human BAFF-R elicited in vivo therapeutic effects against B-cell tumors. Bioluminescence images of mice challenged with luciferase-expressing tumors: JeKo-1 (MCL) (FIG. 4B) or RS4; 11 (ALL) (FIG. 4C). Experimental groups received treatment of chimeric BAFF-R mAbs (C55 or C90, as indicated). Control group mice received PBS, NK cells alone, or rituximab on the same schedule. Data are representative of three independent experiments.
as §2

Consider `C=CC(=O)N1CCC[C@@H](n2nc(-c3ccc(Oc4ccccc4)cc3)c3c(N)ncnc32)C1` [ibrutinib], for which the IC50 was above 100 nM in the data set with SP49-IR cells and 5 nM in the data set with SP49 cells (parental SP49). Moreover, the viability at 0.1 µM with SP49-IR cells (At 100 nM ibrutinib, read-out: viable cells) is above 90%; in the data set on SP49 cells (At 100 nM ibrutinib, SP49, read-out: viable cells) it was around 5%.

Regarding rituximab [reference compound], in data set [1], the ADCC activity result is “not active”. The “tumor burden by bioluminescent imaging” value in data set [2] was “substantial tumor burden”. Also, the “sensitivity to antibody-mediated cytotoxicity” value in the data set on JeKo-1-CD20-KO clone 25 is listed as “insensitive”. For the same molecule, the tumor growth entry in data set [3] is “no inhibition”.

As usually defined, the IC50 is the concentration needed to halve the response being measured.
